Assay results as given in publication PMC5915154, “Aloe-emodin as drug candidate for cancer therapy” (Oncotarget, 2018).

What was measured:
[1] = test system: Human peripheral mononuclear cells (PMNC); test: Toxicity in normal cells, resazurin assay; format: cell-based; conditions: PMNC of a healthy donor, all concentrations tested 0.001-100 μM
Description: We also investigated Aloe-emodin’s toxicity towards normal cells. Human peripheral mononuclear cells (PMNC) were isolated from fresh blood samples of a healthy donor and tested against various concentrations of Aloe-emodin ranging from 0.001-100 μM.
Normal human peripheral mononuclear cells (PMNC) were isolated from fresh blood samples of a healthy donor using Histopaque® (Sigma-Aldrich). In brief, 6 mL blood were layered with 6 mL Histopaque® and centrifuged (400 × g) for 30 min at 4°C. The opaque interface containing lymphocytes and other mononuclear cells was transferred into a new tube and washed several times. Isolated PMNCs were kept in Panserin 413 medium (PAN-Biotech, Aidenbach, Germany) supplemented with 2 % phytohemagglutinin M (PHA-M, Life Technologies, Darmstadt, Germany).
Resazurin reduction assay was conducted to test the cytotoxicity of the compounds. This assay is based on the reduction of resazurin to resorufin by viable cells. […] After 72 h incubation and addition of resazurin (Sigma-Aldrich) for 4 h, staining was measured by an Infinite M2000 ProTM plate reader (Tecan, Germany) using an excitation wavelength of 544 nm and an emission wavelength of 590 nm. […]

CCRF-CEM cells [2] = test: Cell cycle analysis (PI, flow cytometry); format: cell-based, human; conditions: 4-fold IC50, 24 h
Description: The cells were collected, washed in PBS and fixed with ice-cold 96% ethanol. After washing the cells with PBS again, the cells were dissolved in PBS and stained with propidium iodide (PI, Sigma-Aldrich) at a final concentration of 50 μg/mL for 15 min in the dark. Cell cycle analyses were performed using a BD Accuri™ C6 Flow cytometer (Becton-Dickinson, Heidelberg, Germany) at 488 nm excitation wavelength, and emission was measured by a 610/20 nm band pass filter. All experiments were performed at least in triplicates. The protocol has been recently reported by us.

CCRF-CEM cells [3] = test: Mitochondrial membrane potential (JC-1, flow cytometry); format: cell-based, human; conditions: CCRF-CEM, 2- and 4-fold IC50, 24 and 48 h
Text: The JC-1 Mitochondrial Membrane Potential Assay Kit (Cayman Chemical, Ann Arbor, MI, USA) was applied for the detection of MMP by flow cytometry according to the manufacturer’s instructions. The cationic dye, 5, 5’, 6, 6’- tetrachloro- 1, 1’, 3, 3’- tetraethylbenzimidazolylcarbocyanine iodide (JC-1) enters the mitochondria and changes its fluorescent properties based on the aggregation of the probe. In healthy cells having high MMP, JC-1 forms complexes known as J-aggregates with intense red fluorescence. On the other hand, in cells with low MMP, JC-1 remains in its monomeric form showing green fluorescence. […] A LSR-Fortessa FACS analyzer (Becton–Dickinson) was used to detect the J-aggregate form of JC-1 with an excitation wavelength of 535 ± 20 nm and an emission wavelength of 590 ± 20 nm as well as the monomeric form of JC-1 at excitation and emission wavelengths of 485 and 535 nm, respectively. The results were analyzed by the FlowJo software (Celeza, Olten, Switzerland). 2×10^4 cells were counted for each experiment which were repeated in triplicate.

[4] = test system: multidrug-resistant P-glycoprotein-overexpressing CEM/ADR5000 leukemia cells; test: Resazurin reduction assay, CEM/ADR5000; format: cell-based, human; conditions: Homo sapiens; CEM/ADR5000, resazurin assay, 72 h
Text: (§1) The cell lines used in the present work, their origins and maintenance conditions were previously reported. In brief, drug-sensitive CCRF-CEM and multidrug resistant P-glycoprotein-over-expressing CEM/ADR5000 leukemia cells, MDA-MB-231-pcDNA3 breast cancer cells and their transfectant subline MDA-MB-231-BCRP clone 23, HCT116 (p53^+/+) colon cancer cells and its knockout clone HCT116 (p53^-/-), U87.MG glioblastoma multiform cells and their transfectant subline U87.MGΔEGFR as well as HEK293 human embryonic kidney cells transfected with or without a cDNA for ABCB5 were used. The human peripheral mononuclear cells (PMNC) were isolated from fresh blood samples of a healthy donor by using Histopaque® (Sigma-Aldrich, Taufkirchen, Germany).
(§2) Resazurin reduction assay was conducted to test the cytotoxicity of the compounds. This assay is based on the reduction of resazurin to resorufin by viable cells. […] Briefly, aliquots of 0.5×10^4 adherent cells which were allowed to attach overnight and 1×10^4 suspension cells per well were seeded in 96-well-plates with or without the addition of varying concentrations of the test substance to get a total volume of 200 μL/well. After 72 h incubation and addition of resazurin (Sigma-Aldrich) for 4 h, staining was measured by an Infinite M2000 ProTM plate reader (Tecan, Germany) using an excitation wavelength of 544 nm and an emission wavelength of 590 nm. Each assay was independently performed for at least three times, with six parallel replicates each. The protocol has been recently reported. Fifty percent inhibition concentrations (IC50) represent the drug concentrations required to inhibit 50% of cell proliferation, which were fitted with nonlinear regression using GraphPad® Prism7.

[5] = test system: MDA-MB-231-pcDNA breast cancer cells; test: Resazurin reduction assay, MDA-MB-231-pcDNA; format: cell-based; conditions: Homo sapiens, 72 h
Text: as §1
as §2, with “Each assay was independently performed for at least three times, with six parallel replicates each. The protocol has been recently reported. Fifty percent inhibition concentrations (IC50) represent the drug concentrations required to inhibit 50% of cell proliferation, which were fitted with nonlinear regression using GraphPad® Prism7.” left out

CCRF-CEM cells [6] = test: Protease viability marker assay (GF-AFC); format: cell-based; conditions: Homo sapiens, 72 h
Description: The protease viability marker assay was performed to exclude the possibility that the cytotoxicity of Aloe-emodin measured by the resazurin assay was artificially influenced by any non-intended interaction with Aloe-emodin-induced ROS generation. The assay measures the protease activity within living cells. The protease activity is restricted to intact viable cells and is measured using a flourogenic, cell permeant, peptide substrate (glyxyl-phenylalanyl-aminoflourocoumarin; GF-AFC). The substrate enters intact cells, where it is cleaved by proteases to generate a fluorescent signal proportional to the number of living cells. Briefly, CCRF-CEM cells (2×10^4cells/well) were seeded in 96 well plate. Aloe-emodin was added in a dose dependent manner (0.001 – 100 μM). After 72 h, 100 μL of GF-AFC substrate (Promega, Madison, USA) were added to each well, cells were incubated for 30 min at 37°C. Using Infinite M2000Pro™ plate reader (Tecan, Crailsheim, Germany), the fluorescent intensity was measured at an excitation wavelength 400 nm, and emitted light was collected at 505 nm.

[7] = test system: MDA-MB-231-BCRP clone 23 cells; test: Resazurin reduction assay, MDA-MB-231-BCRP clone 23; format: cell-based; conditions: Homo sapiens; MDA-MB-231-BCRP clone 23, resazurin assay, 72 h
Text: as §1
as §2, with “Each assay was independently performed for at least three times, with six parallel replicates each. The protocol has been recently reported. Fifty percent inhibition concentrations (IC50) represent the drug concentrations required to inhibit 50% of cell proliferation, which were fitted with nonlinear regression using GraphPad® Prism7.” left out

[8] = test system: HCT116 (p53+/+) colon cancer cells; test: Resazurin reduction assay, HCT116 (p53+/+); format: cell-based; conditions: Homo sapiens, HCT-116, 72 h
Text: as §1
as §2, with “Each assay was independently performed for at least three times, with six parallel replicates each. The protocol has been recently reported. Fifty percent inhibition concentrations (IC50) represent the drug concentrations required to inhibit 50% of cell proliferation, which were fitted with nonlinear regression using GraphPad® Prism7.” left out

O=C1c2cccc(O)c2C(=O)c2c(O)cc(CO)cc21 [Aloe-emodin]
cytotoxic activity towards normal cells [1]: did not show cytotoxic activity | cell cycle arrest (CCRF-CEM cells [2]): clear arrest in the S-phase | MMP depolarization (JC-1 fluorescence) (CCRF-CEM cells [3]): shift from red to green fluorescence | IC50 [4]: 12.8 µM | IC50 [5]: 22.3 µM | IC50 (CCRF-CEM cells [6]): 13.8 µM | IC50 [7]: 26.9 µM | IC50 [8]: 16.5 µM
